Laboratory results reported in patent US20220073496A1, “NOVEL QUINOLINE DERIVATIVE INHIBITOR” (Nanjing Transthera Biosciences Co., Ltd., priority 2018, published 2022).
pIC50: −log10 of the molar value.

Legend:
CSF1R (h) = target: T1, CSF1R (h) (Homo sapiens, UniProt P07333); assay: Enzymatic activity test, CSF1R (h); assay type: biochemical; conditions: 10 μM [γ-33P]-ATP, 40 minutes, room temperature
T1 construct: purchased
Description: Assay 3: Enzymatic Activity Test of the Compounds of the Present Invention
Test substances: the compounds of the present invention, wherein the structures and preparations thereof were as described above.
(1) Preparation of the Compound Stock Solution
The compound was dissolved in 100% DMSO to prepare a stock solution with a maximum concentration of 500 μM.
(2) Preparation of the Compound Working Solution
The compound stock solution was diluted to final concentrations of 500, 150, 50, 15, 5, 1.5, 0.5, 0.15 and 0.05 μM to become the compound working solutions (50×).
(3) Preparation of Different Enzyme Reaction Solutions
The enzymatic reaction was activated by using 10 mM magnesium acetate and 10 μM [γ-^33P]-ATP to form an Mg/ATP mixed solution.
In a 384-well plate, the compound working solution was added to final concentrations of 10000, 3000, 1000, 300, 100, 30, 10, 3, and 1 nM. Then different enzyme reaction solutions prepared according to the above conditions were added. The incubation was carried out for 40 minutes at room temperature. The test was terminated by the addition of a 0.5% phosphoric acid solution. 10 μL of the reaction solution was taken and dropped to the P30 filter paper. […] The grayscale analysis of the results was performed using Image J software and the IC50 values were calculated using GraphPad 5.0 software.

H1299 cell pMer = target: T2, H1299 cell pMer (Homo sapiens, UniProt Q12866); assay: Inhibitory activity on the cell pMer (Western Blot); assay type: cell-based; conditions: H1299 cells, compound 0.35, 1.1, 3.3, 10 nM, Human MerMab 200 ng/mL
T2 construct: The H1299 cells were inoculated in a 6-well plate; endogenous in cells; host or cells: H1299
T2 sequence (Q12866 21-999): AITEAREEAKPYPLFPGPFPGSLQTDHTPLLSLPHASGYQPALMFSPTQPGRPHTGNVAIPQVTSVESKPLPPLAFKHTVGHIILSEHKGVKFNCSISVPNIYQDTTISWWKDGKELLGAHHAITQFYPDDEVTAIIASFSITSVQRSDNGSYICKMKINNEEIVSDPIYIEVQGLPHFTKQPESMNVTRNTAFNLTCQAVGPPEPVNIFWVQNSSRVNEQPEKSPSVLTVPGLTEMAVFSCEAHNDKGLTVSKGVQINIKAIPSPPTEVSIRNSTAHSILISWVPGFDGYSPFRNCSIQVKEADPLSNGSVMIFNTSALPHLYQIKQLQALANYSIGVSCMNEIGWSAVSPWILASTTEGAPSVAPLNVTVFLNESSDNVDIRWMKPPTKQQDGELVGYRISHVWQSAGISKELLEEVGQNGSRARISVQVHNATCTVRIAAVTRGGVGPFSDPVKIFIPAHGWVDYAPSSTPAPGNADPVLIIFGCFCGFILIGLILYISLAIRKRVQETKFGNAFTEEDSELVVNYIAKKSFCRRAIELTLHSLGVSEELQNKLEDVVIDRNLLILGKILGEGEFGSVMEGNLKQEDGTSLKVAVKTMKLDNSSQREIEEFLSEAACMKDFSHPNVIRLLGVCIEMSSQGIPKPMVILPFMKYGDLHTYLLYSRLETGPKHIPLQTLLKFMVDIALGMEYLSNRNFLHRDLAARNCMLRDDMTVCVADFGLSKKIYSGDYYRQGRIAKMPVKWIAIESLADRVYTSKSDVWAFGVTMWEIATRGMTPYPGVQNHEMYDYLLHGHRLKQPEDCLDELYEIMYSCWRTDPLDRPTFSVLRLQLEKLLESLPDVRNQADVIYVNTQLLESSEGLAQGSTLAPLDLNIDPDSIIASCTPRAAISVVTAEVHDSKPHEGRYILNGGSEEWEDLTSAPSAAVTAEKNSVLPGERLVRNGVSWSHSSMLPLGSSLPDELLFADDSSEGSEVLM
Description: Assay 6: Test for Inhibitory Activities of the Compounds of the Present Invention on the Cell pMer
H1299 is a non-small cell lung cancer cell.
Test substances: the compounds of the present invention, wherein the structures thereof were as described above.
Test equipment: protein electrophoresis apparatus (manufactured by Bio Rad), transfer unit (manufactured by Bio Rad), exposure unit (manufactured by Tanon), CO2 cell incubator (manufactured by Thermo).
The H1299 cells were inoculated in a 6-well plate (containing 10% FBS 1640 medium, 5×10^5 cells per well), and adherent cells were cultivated at 37° C. in a 5% CO2 condition for 18 hours. The cells were starved overnight. Different concentrations of compounds were added. The final compound concentrations were 0.35, 1.1, 3.3 and 10 nM, and the final DMSO content was 1‰. The negative control wells contained the medium containing 1‰ DMSO. After incubating at 37° C. in a 5% CO2 condition for 60 minutes, Human MerMab (R&D, final concentration 200 ng/mL) was added to each well. After further incubating for 60 minutes, the cell total protein was extracted for Western Blot and the IC50 values were calculated using GraphPad 5.0 software. The inhibitory activity of the compound on the cell pMer was examined.

T1 sequence (P07333 20-972): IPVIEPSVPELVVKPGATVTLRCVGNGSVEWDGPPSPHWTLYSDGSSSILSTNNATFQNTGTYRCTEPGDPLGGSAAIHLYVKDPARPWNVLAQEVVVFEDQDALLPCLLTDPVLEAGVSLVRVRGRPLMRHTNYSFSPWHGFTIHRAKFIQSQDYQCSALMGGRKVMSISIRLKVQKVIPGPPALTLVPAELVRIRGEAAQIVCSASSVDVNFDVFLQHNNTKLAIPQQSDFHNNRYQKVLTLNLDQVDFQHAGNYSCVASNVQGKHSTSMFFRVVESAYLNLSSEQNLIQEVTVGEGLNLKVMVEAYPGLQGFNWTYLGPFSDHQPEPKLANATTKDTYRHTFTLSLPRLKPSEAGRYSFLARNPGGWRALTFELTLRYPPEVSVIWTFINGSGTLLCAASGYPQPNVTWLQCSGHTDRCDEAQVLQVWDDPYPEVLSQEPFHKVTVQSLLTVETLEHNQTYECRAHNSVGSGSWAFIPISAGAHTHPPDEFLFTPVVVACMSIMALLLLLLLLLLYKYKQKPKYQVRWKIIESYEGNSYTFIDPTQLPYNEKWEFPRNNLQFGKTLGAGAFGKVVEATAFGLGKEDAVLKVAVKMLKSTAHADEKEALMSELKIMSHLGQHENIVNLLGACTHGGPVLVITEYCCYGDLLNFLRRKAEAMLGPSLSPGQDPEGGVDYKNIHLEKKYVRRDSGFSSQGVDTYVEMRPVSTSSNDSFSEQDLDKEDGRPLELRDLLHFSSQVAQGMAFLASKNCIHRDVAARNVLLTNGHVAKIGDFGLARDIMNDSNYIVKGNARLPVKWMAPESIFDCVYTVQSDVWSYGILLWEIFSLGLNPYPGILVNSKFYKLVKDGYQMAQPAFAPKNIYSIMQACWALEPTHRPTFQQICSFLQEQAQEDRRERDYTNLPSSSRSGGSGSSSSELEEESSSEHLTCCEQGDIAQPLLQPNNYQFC

Question: With `COc1cc2nccc(Oc3ccc(NC(=O)c4nn(C5CC5)cc(-c5ccc(F)cc5)c4=O)nc3)c2cc1OC` [Compound 31] as the molecule, how does the pIC50 (CSF1R (h)) read?
Answer: 7.70

Question: And the pIC50 (H1299 cell pMer)?
Answer: > 9.46
